Active and inactive are the calls of the source. No rule for the calls is given here.
Tests used:
Experiment in all cases: selectivity profile over receptors, transporters, CYPs – biochemical, Ricerca HitProfilingScreen, CYP450, set 2, selectivity assay for GPR7 antagonist project, profiling panel (AID 540345)
Histamine H1 = conditions: Ricerca radioligand binding/CYP panel, at 10 µM, active compounds read high
[1] = target: Beta-2 adrenergic receptor (Homo sapiens) (UniProt P07550); conditions: Ricerca radioligand binding/CYP panel; Adrenergic beta2; at 10 µM; active compounds read high
Beta-2 adrenergic receptor (Homo sapiens), sequence (P07550 whole entry, looked up): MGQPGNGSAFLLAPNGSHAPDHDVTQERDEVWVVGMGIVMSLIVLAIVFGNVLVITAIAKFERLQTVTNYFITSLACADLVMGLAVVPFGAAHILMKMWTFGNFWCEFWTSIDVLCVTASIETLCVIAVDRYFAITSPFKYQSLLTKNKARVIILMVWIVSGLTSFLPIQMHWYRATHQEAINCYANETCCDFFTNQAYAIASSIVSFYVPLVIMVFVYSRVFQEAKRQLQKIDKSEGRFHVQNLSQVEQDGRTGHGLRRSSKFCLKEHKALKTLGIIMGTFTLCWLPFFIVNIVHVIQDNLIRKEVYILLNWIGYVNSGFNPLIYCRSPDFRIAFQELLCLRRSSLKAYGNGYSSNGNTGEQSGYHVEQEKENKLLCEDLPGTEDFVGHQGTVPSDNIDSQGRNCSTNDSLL

Adenosine A1 = conditions: Ricerca radioligand binding/CYP panel, at 10 µM, active compounds read high
Adrenergic alpha1B = conditions: Ricerca radioligand binding/CYP panel, at 10 µM, active compounds read high
Adrenergic alpha1A = conditions: Ricerca radioligand binding/CYP panel, at 10 µM, active compounds read high
[2] = target: Muscarinic acetylcholine receptor M2 (Homo sapiens) (UniProt P08172); conditions: Ricerca radioligand binding/CYP panel, at 10 µM, active compounds read high
Muscarinic acetylcholine receptor M2 (Homo sapiens), sequence (P08172 whole entry, looked up): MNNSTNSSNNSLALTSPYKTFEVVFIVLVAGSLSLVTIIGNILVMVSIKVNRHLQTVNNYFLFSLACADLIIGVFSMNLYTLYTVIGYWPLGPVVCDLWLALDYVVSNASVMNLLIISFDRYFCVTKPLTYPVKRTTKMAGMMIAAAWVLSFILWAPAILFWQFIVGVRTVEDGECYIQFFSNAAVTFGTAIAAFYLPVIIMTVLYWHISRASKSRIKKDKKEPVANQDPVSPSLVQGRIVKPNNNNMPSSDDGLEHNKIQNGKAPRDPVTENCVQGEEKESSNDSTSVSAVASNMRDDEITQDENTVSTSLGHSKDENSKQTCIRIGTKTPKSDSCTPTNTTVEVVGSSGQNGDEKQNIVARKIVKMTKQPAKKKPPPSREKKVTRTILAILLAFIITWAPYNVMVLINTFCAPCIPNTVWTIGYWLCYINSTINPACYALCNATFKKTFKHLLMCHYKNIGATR

[3] = target: D(1A) dopamine receptor (Homo sapiens) (UniProt P21728); conditions: Ricerca radioligand binding/CYP panel; Dopamine D1; at 10 µM; active compounds read high
[4] = tested on: Transporter Norepinephrine (NET); conditions: Ricerca radioligand binding/CYP panel, at 10 µM, active compounds read high
[5] = target: Cytochrome P450 2D6 (Homo sapiens) (UniProt P10635); conditions: Ricerca radioligand binding/CYP panel; CYP450 2D6; at 10 µM; active compounds read high
Cytochrome P450 2D6 (Homo sapiens), sequence (P10635 whole entry, looked up): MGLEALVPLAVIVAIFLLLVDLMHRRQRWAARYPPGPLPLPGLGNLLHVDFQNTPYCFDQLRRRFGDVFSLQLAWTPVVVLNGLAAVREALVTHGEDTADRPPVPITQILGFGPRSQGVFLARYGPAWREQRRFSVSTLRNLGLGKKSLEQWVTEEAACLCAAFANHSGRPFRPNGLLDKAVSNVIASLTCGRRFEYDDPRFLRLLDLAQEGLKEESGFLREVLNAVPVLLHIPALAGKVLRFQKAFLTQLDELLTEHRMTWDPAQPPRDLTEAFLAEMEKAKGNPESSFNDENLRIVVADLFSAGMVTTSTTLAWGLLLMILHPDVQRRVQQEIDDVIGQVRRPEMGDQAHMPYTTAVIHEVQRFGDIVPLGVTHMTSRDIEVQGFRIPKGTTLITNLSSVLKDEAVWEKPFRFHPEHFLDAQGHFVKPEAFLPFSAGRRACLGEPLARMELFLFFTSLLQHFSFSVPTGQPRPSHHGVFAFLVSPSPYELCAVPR

[6] = target: Cytochrome P450 3A4 (Homo sapiens) (UniProt P08684); conditions: Ricerca radioligand binding/CYP panel; CYP450 3A4; at 10 µM; active compounds read high
Cytochrome P450 3A4 (Homo sapiens), sequence (P08684 whole entry, looked up): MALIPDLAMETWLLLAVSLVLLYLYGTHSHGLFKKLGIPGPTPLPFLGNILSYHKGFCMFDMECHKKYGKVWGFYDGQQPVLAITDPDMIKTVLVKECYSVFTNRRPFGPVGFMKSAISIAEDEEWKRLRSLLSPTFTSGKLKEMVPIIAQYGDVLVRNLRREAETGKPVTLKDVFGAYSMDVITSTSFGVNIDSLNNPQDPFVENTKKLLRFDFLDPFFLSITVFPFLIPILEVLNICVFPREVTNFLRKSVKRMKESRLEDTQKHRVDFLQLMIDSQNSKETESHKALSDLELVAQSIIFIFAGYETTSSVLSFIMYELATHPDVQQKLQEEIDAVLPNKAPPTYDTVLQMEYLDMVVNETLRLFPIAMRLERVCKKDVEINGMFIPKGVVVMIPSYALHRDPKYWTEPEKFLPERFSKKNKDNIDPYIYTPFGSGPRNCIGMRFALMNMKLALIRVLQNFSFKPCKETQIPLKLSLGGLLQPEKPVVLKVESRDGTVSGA

Cannabinoid CB1 = conditions: Ricerca radioligand binding/CYP panel, at 10 µM, active compounds read high
[7] = target: Alpha-2A adrenergic receptor (Homo sapiens) (UniProt P08913); conditions: Ricerca radioligand binding/CYP panel; Adrenergic alpha2A; at 10 µM; active compounds read high
Alpha-2A adrenergic receptor (Homo sapiens), sequence (P08913 whole entry, looked up): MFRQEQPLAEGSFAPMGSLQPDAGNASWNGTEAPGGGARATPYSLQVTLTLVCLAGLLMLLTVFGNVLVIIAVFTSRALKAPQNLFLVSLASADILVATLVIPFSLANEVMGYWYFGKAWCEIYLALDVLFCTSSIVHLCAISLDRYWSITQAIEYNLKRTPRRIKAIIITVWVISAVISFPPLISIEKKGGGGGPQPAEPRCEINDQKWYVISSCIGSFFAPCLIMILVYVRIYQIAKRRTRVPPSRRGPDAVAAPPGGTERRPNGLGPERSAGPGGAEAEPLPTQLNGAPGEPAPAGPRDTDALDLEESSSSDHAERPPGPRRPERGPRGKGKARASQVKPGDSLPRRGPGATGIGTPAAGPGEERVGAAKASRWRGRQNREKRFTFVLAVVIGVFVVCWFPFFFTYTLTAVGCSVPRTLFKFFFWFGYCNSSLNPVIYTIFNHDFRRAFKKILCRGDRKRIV

[8] = target: 5-hydroxytryptamine receptor 2B (Homo sapiens) (UniProt P41595); conditions: Ricerca radioligand binding/CYP panel; Serotonin (5-Hydroxytryptamine) 5-HT2B; at 10 µM; active compounds read high
Adrenergic beta1 = conditions: Ricerca radioligand binding/CYP panel, at 10 µM, active compounds read high
Sigma 1 = conditions: Ricerca radioligand binding/CYP panel, at 10 µM, active compounds read high
Opiate mu (OP3, MOP) = conditions: Ricerca radioligand binding/CYP panel, at 10 µM, active compounds read high
[9] = target: Cytochrome P450 2C9 (Homo sapiens) (UniProt P11712); conditions: Ricerca radioligand binding/CYP panel; CYP450 2C9; at 10 µM; active compounds read high
Cytochrome P450 2C9 (Homo sapiens), sequence (P11712 whole entry, looked up): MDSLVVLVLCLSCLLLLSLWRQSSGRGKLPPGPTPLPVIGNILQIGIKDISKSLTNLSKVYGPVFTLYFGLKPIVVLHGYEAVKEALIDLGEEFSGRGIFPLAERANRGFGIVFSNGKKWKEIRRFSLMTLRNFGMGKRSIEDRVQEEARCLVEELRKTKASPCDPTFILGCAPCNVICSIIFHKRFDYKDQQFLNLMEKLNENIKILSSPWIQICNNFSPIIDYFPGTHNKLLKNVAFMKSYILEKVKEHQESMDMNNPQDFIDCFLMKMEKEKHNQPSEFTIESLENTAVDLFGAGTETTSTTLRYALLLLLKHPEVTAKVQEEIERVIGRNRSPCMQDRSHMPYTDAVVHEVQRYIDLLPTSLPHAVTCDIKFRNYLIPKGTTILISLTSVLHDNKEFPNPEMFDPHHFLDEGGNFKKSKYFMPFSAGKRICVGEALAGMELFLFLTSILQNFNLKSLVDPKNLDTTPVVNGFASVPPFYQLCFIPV

Nicotinic Acetylcholine = conditions: Ricerca radioligand binding/CYP panel, at 10 µM, active compounds read high
CYP450 2C19 = conditions: Ricerca radioligand binding/CYP panel, at 10 µM, active compounds read high
Sodium Channel = conditions: Ricerca radioligand binding/CYP panel, Site 2, at 10 µM, active compounds read high
Calcium Channel L-Type = conditions: Ricerca radioligand binding/CYP panel, Dihydropyridine site, at 10 µM, active compounds read high
[10] = tested on: Alpha-2A adrenergic receptor (Homo sapiens) + Histamine H1 receptor (Homo sapiens) + Mu-type opioid receptor (Homo sapiens); conditions: Ricerca radioligand binding/CYP panel; at 10 µM; active compounds read high
GABAA = conditions: Ricerca radioligand binding/CYP panel, central, at 10 µM, active compounds read high
[11] = target: Muscarinic acetylcholine receptor M3 (Homo sapiens) (UniProt P20309); conditions: Ricerca radioligand binding/CYP panel, at 10 µM, active compounds read high
Muscarinic acetylcholine receptor M3 (Homo sapiens), sequence (P20309 whole entry, looked up): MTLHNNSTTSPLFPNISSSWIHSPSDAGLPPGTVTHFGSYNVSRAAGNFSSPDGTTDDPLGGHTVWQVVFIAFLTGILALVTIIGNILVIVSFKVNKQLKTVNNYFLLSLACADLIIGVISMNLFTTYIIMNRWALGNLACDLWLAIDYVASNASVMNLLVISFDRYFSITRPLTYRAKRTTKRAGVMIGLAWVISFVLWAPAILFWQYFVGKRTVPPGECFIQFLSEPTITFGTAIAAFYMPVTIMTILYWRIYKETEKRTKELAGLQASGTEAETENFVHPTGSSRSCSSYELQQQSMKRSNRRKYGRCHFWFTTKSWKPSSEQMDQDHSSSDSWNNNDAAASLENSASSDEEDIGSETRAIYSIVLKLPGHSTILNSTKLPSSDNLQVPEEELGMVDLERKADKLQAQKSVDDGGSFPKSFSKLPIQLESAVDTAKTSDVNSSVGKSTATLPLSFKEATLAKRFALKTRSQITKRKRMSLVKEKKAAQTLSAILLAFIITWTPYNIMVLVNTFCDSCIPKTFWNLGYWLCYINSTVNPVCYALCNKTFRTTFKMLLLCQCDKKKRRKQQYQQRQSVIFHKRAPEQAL

Glutamate NMDA = conditions: Ricerca radioligand binding/CYP panel, Phencyclidine site, at 10 µM, active compounds read high
Dopamine D2S = conditions: Ricerca radioligand binding/CYP panel, at 10 µM, active compounds read high
[12] = target: Cytochrome P450 1A2 (Homo sapiens) (UniProt P05177); conditions: Ricerca radioligand binding/CYP panel; CYP450 1A2; at 10 µM; active compounds read high
[13] = target: Voltage-gated inwardly rectifying potassium channel KCNH2 (Homo sapiens) (UniProt Q12809); conditions: Ricerca radioligand binding/CYP panel; Potassium Channel hERG; at 10 µM; active compounds read high
Voltage-gated inwardly rectifying potassium channel KCNH2 (Homo sapiens), sequence (Q12809 whole entry, looked up): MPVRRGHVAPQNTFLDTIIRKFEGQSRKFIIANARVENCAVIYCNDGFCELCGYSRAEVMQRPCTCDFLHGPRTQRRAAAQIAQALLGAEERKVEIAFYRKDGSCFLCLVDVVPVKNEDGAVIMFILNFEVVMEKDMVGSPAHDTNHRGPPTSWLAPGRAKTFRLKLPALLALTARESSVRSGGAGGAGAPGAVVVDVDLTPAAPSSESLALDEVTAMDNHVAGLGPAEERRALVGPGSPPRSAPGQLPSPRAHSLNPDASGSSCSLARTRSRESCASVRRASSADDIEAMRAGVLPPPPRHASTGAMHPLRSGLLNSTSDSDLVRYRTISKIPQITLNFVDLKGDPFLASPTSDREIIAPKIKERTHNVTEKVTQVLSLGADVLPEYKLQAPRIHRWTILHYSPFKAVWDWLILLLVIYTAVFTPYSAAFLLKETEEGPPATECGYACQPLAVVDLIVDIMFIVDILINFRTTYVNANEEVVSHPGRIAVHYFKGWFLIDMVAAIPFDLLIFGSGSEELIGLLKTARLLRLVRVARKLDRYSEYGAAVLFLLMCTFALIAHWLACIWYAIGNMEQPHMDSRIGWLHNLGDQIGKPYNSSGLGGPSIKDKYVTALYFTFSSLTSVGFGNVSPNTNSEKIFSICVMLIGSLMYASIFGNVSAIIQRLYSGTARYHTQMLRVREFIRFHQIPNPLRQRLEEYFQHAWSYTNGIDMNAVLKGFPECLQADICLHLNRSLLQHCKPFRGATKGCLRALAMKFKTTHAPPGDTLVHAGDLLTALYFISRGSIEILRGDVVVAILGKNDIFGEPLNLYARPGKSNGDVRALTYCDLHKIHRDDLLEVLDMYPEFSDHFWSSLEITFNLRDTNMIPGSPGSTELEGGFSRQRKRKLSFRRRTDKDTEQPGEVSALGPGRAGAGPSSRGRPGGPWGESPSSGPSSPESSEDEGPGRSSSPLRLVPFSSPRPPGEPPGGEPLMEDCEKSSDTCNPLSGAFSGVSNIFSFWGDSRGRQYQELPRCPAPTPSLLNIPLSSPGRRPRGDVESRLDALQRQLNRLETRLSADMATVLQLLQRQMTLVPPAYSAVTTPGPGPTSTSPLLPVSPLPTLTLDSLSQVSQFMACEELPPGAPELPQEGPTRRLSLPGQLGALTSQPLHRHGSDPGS

Adenosine A2A = conditions: Ricerca radioligand binding/CYP panel, at 10 µM, active compounds read high
Prostanoid EP4 = conditions: Ricerca radioligand binding/CYP panel, at 10 µM, active compounds read high

Q: How did the inhibition (Histamine H1) turn out when `COc1ccc(Oc2c(Cl)cnn(C3c4ccccc4-c4ccccc43)c2=O)cc1` was run?
A: The inhibition was 17% (inactive).

Q: And the inhibition [1]?
A: Its inhibition is 4% (inactive).

Q: And the inhibition (Adenosine A1)?
A: The inhibition was 7% (inactive).

Q: What about the inhibition (Adrenergic alpha1B) of the same molecule?
A: Its inhibition is 8% (inactive).

Q: What about the inhibition (Adrenergic alpha1A) of the same molecule?
A: The inhibition was -1% (inactive).

Q: What about the inhibition [2] of the same molecule?
A: The inhibition was -2% (inactive).

Q: What about the inhibition [3] of the same molecule?
A: Its inhibition is 14% (inactive).

Q: What about the inhibition [4] of the same molecule?
A: Its inhibition is 42% (inactive).

Q: What about the inhibition [5] of the same molecule?
A: Its inhibition is 2% (inactive).

Q: What about the inhibition [6] of the same molecule?
A: Its inhibition is 26% (inactive).

Q: And the inhibition (Cannabinoid CB1)?
A: The inhibition was 9% (inactive).

Q: And the inhibition [7]?
A: The inhibition was 5% (inactive).

Q: And the inhibition [8]?
A: The inhibition was 63%.

Q: And the inhibition (Adrenergic beta1)?
A: Its inhibition is 7% (inactive).

Q: What about the inhibition (Sigma 1) of the same molecule?
A: Its inhibition is 6% (inactive).

Q: And the inhibition (Opiate mu (OP3, MOP))?
A: The inhibition was 1% (inactive).

Q: What about the inhibition [9] of the same molecule?
A: Its inhibition is 13% (inactive).

Q: What about the inhibition (Nicotinic Acetylcholine) of the same molecule?
A: The inhibition was -16% (inactive).

Q: What about the inhibition (CYP450 2C19) of the same molecule?
A: Its inhibition is 51%.

Q: And the inhibition (Sodium Channel)?
A: Its inhibition is 36% (inactive).

Q: What about the inhibition (Calcium Channel L-Type) of the same molecule?
A: Its inhibition is 33% (inactive).

Q: What about the inhibition [10] of the same molecule?
A: The inhibition was 8% (inactive).

Q: What about the inhibition (GABAA; Flunitrazepam site) of the same molecule?
A: The inhibition was 0% (inactive).

Q: What about the inhibition (GABAA; Muscimol site) of the same molecule?
A: The inhibition was 7% (inactive).

Q: What about the inhibition [11] of the same molecule?
A: Its inhibition is -1% (inactive).

Q: What about the inhibition (Glutamate NMDA) of the same molecule?
A: The inhibition was -18% (inactive).

Q: What about the inhibition (Dopamine D2S) of the same molecule?
A: The inhibition was -1% (inactive).

Q: What about the inhibition [12] of the same molecule?
A: Its inhibition is 67%.

Q: And the inhibition [13]?
A: The inhibition was 28% (inactive).

Q: And the inhibition (Adenosine A2A)?
A: The inhibition was 15% (inactive).

Q: And the inhibition (Prostanoid EP4)?
A: The inhibition was 5% (inactive).
